Source: patent publication US8288342B2, “Methods for treating vasomotor symptoms in castrated prostatic cancer patients with low dose cyproterone acetate” (priority 2008, dated 2012)

How the values were obtained:
[1] = tested on: post-orchiectomy hot flashes in prostate cancer subjects; details: CPA 300 mg daily, 3 weeks, 12 post-orchiectomy subjects; cited from earlier work
[2] = tested on: quality of life of prostate cancer patients; details: 367 evaluable patients; oral and i.m., doses varied; cited from earlier work
[3] = tested on: hot flashes following surgical or medical castration of prostate cancer patients; test: Randomized, multicenter, placebo-controlled Phase 2 trial of CPA 5, 15, 25 mg/day: hot flash efficacy; format: in vivo, human; details: for Reduction in average severity of moderate to severe hot flashes compared to placebo (positive) / Reduction in weekly average severity of hot flashes compared to placebo (Table 7 analysis, positive) / LS Mean Change in Weekly Average Severity of All Hot Flashes / LS Mean Change in Weekly Average Severity of Moderate to Severe Hot Flashes: 4-point scale; for Fewer weekly moderate to severe hot flashes compared to placebo (reduction, positive): baseline to end-of-treatment
Text: The inclusion criteria included male (>18 years) prostate cancer patients who have undergone bilateral orchiectomy or have used or are using LHRH analogue drug([…]®, Aberelix®), and have complained of bothersome hot flashes as defined by the occurrence of at least 3 moderate to severe hot flashes per day or 21 per week at baseline. Hot flashes were present for at least 1 month prior to study entry. […] A total of 121 clinical sites in the United States and Canada participated in this Phase 2 study with 77 sites enrolling at least one subject. The overall study duration for each subject was approximately 19 weeks, which included a screening period of up to 4 weeks, a one-week placebo run-in period, a 12-week double-blind period, and a follow-up telephone call two weeks after the last dose of study medication. After providing informed consent on the first day of the screening period, all subjects had medical and hot flash history recorded, a physical examination, a chest x-ray and Doppler to assess known thromboembolic risk factors, an ECG to evaluate cardiac risks, and clinical laboratory evaluations. Once all results of tests conducted during the screening period were obtained, subjects who met all of the inclusion criteria and none of the exclusion criteria were eligible to enter the one-week, single-blind, placebo run-in period. […] CPA 5, 15, or 25 mg/day or placebo. After beginning study medication, subjects returned for study visits at weeks 2, 4, 8, and 12. Two weeks after the final treatment visit, a telephone follow-up call was conducted to record and evaluate adverse events (“AE”s) since the last study visit. Each subject received one tablet daily, which was administered orally. All tablets were blinded and identical in appearance. The formulation used in this study was an immediate release product containing 5, 15, or 25 mg of CPA. The CPA tablets are described in Example 1. The dosage form for the CPA used in this study was an identical, blind, modified oval, scored, immediate release oral tablet for each strength, consisting of cyproterone acetate, lactose, microcrystalline cellulose, crospovidone, sodium lauryl sulfate, silicon dioxide, magnesium stearate, and stearic acid. Placebo tablets included the same constituents but without CPA and were identical in appearance to the active tablets. During the single-blind placebo run-in period, subjects received one medication bottle containing a one week+2 day supply (9 tablets total) of single-blind placebo tablets and a copy of the Subject Information Sheet. Subjects were instructed to take one tablet each morning by mouth, preferably with a meal, at approximately the same time each day. Subjects were not made aware that they were receiving placebo. Following randomization at Visit 2, all enrolled and eligible subjects were randomized equally to one of four treatment groups (CPA 5, 15, 25 mg, or placebo) and received the study medication on the same day. At treatment visits 0, 4, and 8 weeks following initiation, each subject received one medication bottle containing a one-month supply+7 (35 tablets total) of double-blind […] tablets and a copy of the Subject Information Sheet. Subjects were instructed to take one tablet each morning by mouth, preferably with a meal, at approximately the same time each day. This study was designed to evaluate three doses of CPA (5 mg, 15 mg, and 25 mg) for the treatment of hot flashes in prostate cancer patients. Observation of a reduction in the frequency and severity of hot flashes was considered a reasonable and reliable indicator of the efficacy of active treatment. The primary measure of efficacy was the change in weekly frequency and weekly average severity of moderate to severe hot flashes from the placebo run-in period to the final week of treatment. […]

[4] = over 2500 patients, long-term use; men 100 to 200 or more than 200 mg/day; cited from earlier work
[5] = all three treatment groups (5, 15, 25 mg/day)

For `CC(=O)O[C@]1(C(C)=O)CC[C@H]2[C@@H]3C=C(Cl)C4=CC(=O)[C@@H]5C[C@@H]5[C@]4(C)[C@H]3CC[C@@]21C` [CPA, cyproterone acetate], the “Frequency of hot flashes” value [1] is listed as “significantly reduced”, the “Evaluable patients with general improvement in subjective assessment of quality of life” value [2] is listed as 70% and the “% With Complete Disappearance of All Hot Flashes at 12 Weeks/End-of-Treatment” value ([3]; CPA 5 mg, N 80) is listed as 27.5%. For the same compound, the “Proportion of subjects with total elimination of moderate to severe hot flashes (Yes)” value (“Proportion of subjects … (Yes)” for short) ([3]; CPA 5 mg/day) was 27.27%, the “Proportion of subjects without total elimination of moderate to severe hot flashes (No)” value ([3]; CPA 5 mg/day) was 72.73% and the “Reduction in average frequency of all hot flashes compared to placebo (positive)” value (“Reduction in average frequency” for short) ([3]; CPA 5 mg/day) was 27.73 units. For the same compound, the “Subjects without total elimination of moderate to severe hot flashes (No), number” value ([3]; CPA 5 mg/day) was 56, the “LS Mean Change in Total Weekly Moderate to Severe Hot Flash Frequency” value (shortened to “LS Mean Change in Total Weekly Moderate”) ([3]; CPA 5 mg/day oral, Baseline (Day 0) to End-of-Treatment (Day 84)) was −40.47 and the “Subjects with total elimination of moderate to severe hot flashes (Yes), number” value (“Subjects with total elimination … number” for short) ([3]; CPA 5 mg/day, out of 77) was 21. For the same compound, the “Reduction in average severity of moderate to severe hot flashes compared to placebo (positive)” value (shortened to “Reduction in average severity”) ([3]; CPA 5 mg/day) was 0.86 units, the “Reduction in weekly average severity of hot flashes compared to placebo (Table 7 analysis, positive)” value (“Reduction in weekly average severity” for short) ([3]; CPA 5 mg/day) was 0.60 units and the “Difference from placebo in change of Total Weekly Moderate to Severe Hot Flash Frequency” value ([3]; CPA 5 mg/day, Day 0 to Day 84) was −23.08. For the same compound, the “Difference from placebo in change of Weekly Average Frequency of All Hot Flashes” value ([3]; CPA 5 mg/day, Day 0 to Day 84) was −27.73, the “Difference from placebo in change of Weekly Average Severity of All Hot Flashes” value ([3]; CPA 5 mg/day, Day 0 to Day 84) was −0.6 and the “Difference from placebo in change of Weekly Average Severity of Moderate to Severe Hot Flashes” value ([3]; CPA 5 mg/day, Day 0 to Day 84) was −0.86. For the same compound, the “LS Mean Change in Weekly Average Frequency of All Hot Flashes” value ([3]; CPA 5 mg/day, Day 0 to Day 84) was −50.67, the “LS Mean Change in Weekly Average Severity of All Hot Flashes” value ([3]; CPA 5 mg/day, Day 0 to Day 84) was −0.76 and the “LS Mean Change in Weekly Average Severity of Moderate to Severe Hot Flashes” value (“LS Mean Change … to Severe Hot Flashes” for short) ([3]; CPA 5 mg/day, Day 0 to Day 84) was −1.06. The “Fewer weekly moderate to severe hot flashes compared to placebo (reduction, positive)” value (“Fewer weekly moderate … (reduction, positive)” for short) ([3]; CPA 5 mg/day) was 23.08, the “% With Complete Disappearance of All Hot Flashes at 12 Weeks/End-of-Treatment” value ([3]; CPA 15 mg, N 96) was 32.3% and the “Proportion of subjects … (Yes)” value ([3]; CPA 15 mg/day) was 32.63%. For the same compound, the “Proportion of subjects without total elimination of moderate to severe hot flashes (No)” value ([3]; CPA 15 mg/day) was 67.37%, the “Reduction in average frequency” value ([3]; CPA 15 mg/day) was 32.69 units and the “Subjects without total elimination of moderate to severe hot flashes (No), number” value ([3]; CPA 15 mg/day) was 64. For the same compound, the “LS Mean Change in Total Weekly Moderate” value ([3]; CPA 15 mg/day oral, Day 0 to Day 84) was −45.05, the “Subjects with total elimination … number” value ([3]; CPA 15 mg/day, out of 95) was 31 and the “Reduction in average severity” value ([3]; CPA 15 mg/day) was 1.13 units. For the same compound, the “Reduction in weekly average severity” value ([3]; CPA 15 mg/day) was 0.78 units, the “Difference from placebo in change of Total Weekly Moderate to Severe Hot Flash Frequency” value ([3]; CPA 15 mg/day, Day 0 to Day 84) was −27.66 and the “Difference from placebo in change of Weekly Average Frequency of All Hot Flashes” value ([3]; CPA 15 mg/day, Day 0 to Day 84) was −32.69. For the same compound, the “Difference from placebo in change of Weekly Average Severity of All Hot Flashes” value ([3]; CPA 15 mg/day, Day 0 to Day 84) was −0.78, the “Difference from placebo in change of Weekly Average Severity of Moderate to Severe Hot Flashes” value ([3]; CPA 15 mg/day, Day 0 to Day 84) was −1.13 and the “LS Mean Change in Weekly Average Frequency of All Hot Flashes” value ([3]; CPA 15 mg/day, Day 0 to Day 84) was −55.63. For the same compound, the “LS Mean Change in Weekly Average Severity of All Hot Flashes” value ([3]; CPA 15 mg/day, Day 0 to Day 84) was −0.94, the “LS Mean Change … to Severe Hot Flashes” value ([3]; CPA 15 mg/day, Day 0 to Day 84) was −1.33 and the “Fewer weekly moderate … (reduction, positive)” value ([3]; CPA 15 mg/day) was 27.66. For the same compound, the “% With Complete Disappearance of All Hot Flashes at 12 Weeks/End-of-Treatment” value ([3]; CPA 25 mg, N 86) was 36.1%, the “Proportion of subjects … (Yes)” value ([3]; CPA 25 mg/day) was 36.05% and the “Proportion of subjects without total elimination of moderate to severe hot flashes (No)” value ([3]; CPA 25 mg/day) was 63.95%. For the same compound, the “Reduction in average frequency” value ([3]; CPA 25 mg/day) was 33.93 units, the “Subjects without total elimination of moderate to severe hot flashes (No), number” value ([3]; CPA 25 mg/day) was 55 and the “LS Mean Change in Total Weekly Moderate” value ([3]; CPA 25 mg/day oral, Day 0 to Day 84) was −46.14. For the same compound, the “Subjects with total elimination … number” value ([3]; CPA 25 mg/day, out of 86) was 31, the “Reduction in average severity” value ([3]; CPA 25 mg/day) was 0.94 units and the “Reduction in weekly average severity” value ([3]; CPA 25 mg/day) was 0.77 units. For the same compound, the “Difference from placebo in change of Total Weekly Moderate to Severe Hot Flash Frequency” value ([3]; CPA 25 mg/day, Day 0 to Day 84) was −28.75, the “Difference from placebo in change of Weekly Average Frequency of All Hot Flashes” value ([3]; CPA 25 mg/day, Day 0 to Day 84) was −33.93 and the “Difference from placebo in change of Weekly Average Severity of All Hot Flashes” value ([3]; CPA 25 mg/day, Day 0 to Day 84) was −0.77. The “Difference from placebo in change of Weekly Average Severity of Moderate to Severe Hot Flashes” value ([3]; CPA 25 mg/day, Day 0 to Day 84) was −0.94, the “LS Mean Change in Weekly Average Frequency of All Hot Flashes” value ([3]; CPA 25 mg/day, Day 0 to Day 84) was −56.87 and the “LS Mean Change in Weekly Average Severity of All Hot Flashes” value ([3]; CPA 25 mg/day, Day 0 to Day 84) was −0.93. The “LS Mean Change … to Severe Hot Flashes” value ([3]; CPA 25 mg/day, Day 0 to Day 84) was −1.14, the “Fewer weekly moderate … (reduction, positive)” value ([3]; CPA 25 mg/day) was 28.75 and the “Treating all hot flashes, including mild, moderate, and severe” value ([3]; all three doses (5, 15, 25 mg/day)) was “effective”. The “Total weekly frequency of moderate to severe hot flashes over placebo” value [3, 5] was “statistically significant reduction”, the “Weekly average frequency of all hot flashes over placebo” value [3, 5] was “statistically significant reduction” and the “Weekly average severity of all hot flashes over placebo” value [3, 5] was “statistically significant reduction”. The “Weekly average severity of moderate to severe hot flashes over placebo” value [3, 5] was “statistically significant reduction” and the “Correlation between duration of CPA treatment and prevalence of liver enzyme elevations” value [4] was “No correlation was found”.
